The values below come from patent publication US5073571A, “Method of inhibiting virus” (priority 1989, dated 1991).

The subject of data set [1] is HIV-1. Put plainly: HIV-1 replication in H9 cells, reverse transcriptase activity of culture supernatants (acute infection). To be noted: for effect on reverse transcriptase activity: 1-10 μM, 10 day incubation, HIV-1 infected H9 cells; for activity at 100 µM: Human immunodeficiency virus 1, H9, 240 h, read-out: reverse transcriptase (RT) activity. Type of data set: cell-based, HIV-1 strain HXB2gptX (in human H9 cells). Here is the method: (§1) Media was changed every other day. The effect of these compounds on virus production was determined by measuring the reverse transcriptase (RT) activity in samples of the cell culture supernatants. […] Negative controls consisted of no additions or 0.1ethanol. The results of duplicate assays were averaged. Panel B -Concentration-dependent effects of 13-oxamyristic acid on HIV-1 replication as measured by RT activity (percent of untreated control) and the presence of p24 antigen (ng/ml determined by ELISA). Error bars indicate the S.E.M. of assays done in triplicate. Panel C - The effect of 13-oxamyristic acid on syncytia formation using an arbitrary scale described under Materials and Methods, Example 16, below. Panel D - Toxicity of 13-oxamyristic acid determined by viable cell count (trypan blue exclusion), as well as by [^3 H]thymidine and [^3 H]leucine labeling (see under Materials and Methods, Example 16, below). The incorporation of these radiolabeled compounds was determined in the total cell population contained in a well after 10 days of treatment with the analog. Duplicate assays were performed and the results averaged.
Assay for HIV-1 Replication. The human T-lymphoid cell line, H9, was provided by R. D. Gallo (NIH) and maintained in RPMI-1640 medium supplemented with 10% fetal bovine serum, 100 IU/mL penicillin, 100 μg/mL streptomycin an 2 mM L-glutamine. HIV-1 strain HXB2gptX [Fisher et al., Science 233, 655-659 (1986)] was obtained from cultures of chronically infected H9 cells [Popovic et al., Science 224, 497-500 (1984)]< filtered through 0.2 μm Millipore filters and stored at -90° C. The titer of the virus stock was determined by serial dilution using syncytia formation and reverse transcriptase activity (see below) as a measure of infectivity in H9 cells.
Cell-free HIV-1, at a multiplicity of infection (m.o.i.) equal to 0.01-0.001, was added to 10^7 H9 cells which had been pretreated with 2 μg/ml Polybrene® (hexadimethrene bromide, Sigma). Following a 30 min incubation at 37° C. to absorb the virus, 4 × 10^5 of virus treated cells in 1 mL of fresh medium (plus 10% fetal calf serum, pencillin and streptomycin) were added to each well of a 24 well tissue culture plate (Falcon), and mixed with an equal volume of serum-free RPMI-1640 medium containing analog. Medium containing 5% serum, antibiotics ± analog was replaced every other day. Each of the heteroatom substituted analogs was prepared as a 100 mM stock solution in 100% ethanol and stored at -90° C. prior to dilution in the serum-free RPMI-1640 medium. The maximum final ethanol concentration reached after dilution of the different analogs in media was 0.1%. Therefore, uninfected and infected H9 cells, treated with or without 0.1% ethanol, were used as controls for each test. Ethanol alone had no demonstrable effects.
Except for the preliminary screening of the various (coded) analogs which was done twice, all other assays were performed at least three times. Samples were tested in duplicate each time the assay was repeated.
Virus Assays. Virus was quantitated using supernatant solutions of cells harvested on day 8 (m.o.i.=0.01) or day 10 (m.o.i.=0.001) of treatment. Virions were concentrated 10 fold by precipitation of culture supernatants with a solution of polyethylene glycol (30% in 150 mM NaCl, 0.1 mM phenylmethylsulfonylfluoride). The precipitates were solubilized and virus-associated reverse transcriptase (RT) activity measured by [^32 P]TTP incorporation using a poly(rA)-oligo(dT) template [Poiesz et al., Proc. Natl. Acad. Sci. USA 77, 7415-7419 (1980)]. Cell supernatants were also tested for virus-specific antigen using a p24 ELISA from Dupont (Wilmington, DE). This assay can detect as little as 0.03 ng of antigen/mL (antigen=p24, the major structural nucleocapsid protein of HIV-1, as well as its precursor, Pr55^gag).
HIV-1 Replication in H9 Cells is Inhibited by Treatment with Heteroatom-Containing Analogs of Myristate. […]

Another data set relates to MoMLV. Put plainly: MoMLV replication: LZ1 virus titer by histochemical staining of NIH 3T3 cells for β-galactosidase. Type of data set: cell-based, Maloney murine leukemia virus. From the text:
Panel A -Schematic representation of the MoMLV assay system. […] This cell produces infectious, replication defective virus (designated (LZ1) which carries the LacZ gene. When NIH3T3 cells are exposed to supernatant taken from the LZ1 virus producing cells, they are initially infected and their progeny are detectable by histochemical staining for β-galactosidase. Thus, the titer of the virus produced by the LZ1 cells after treatment with the various agents, can be readily determined by counting the number of blue NIH3T3 cells. Replication competent MoMLV is not detected using this assay system since the lacZ gene product is not present. Panel B - The effect of 6-oxamyristic acid and 13-oxamyristic acid on LZ1 virus production. The results represent the mean (+1 standard deviation) of three independent tests each done in duplicate. Panel C - Number of viable LZ1 producing cells at the end of a 2 day treatment with analog as measured by trypan blue exclusion. The results of duplicate assays were averaged. Panel D - The effects of analog treatment on incorporation of [^3 H]leucine. Cells in duplicate wells were pulse labeled for 4 h following three days of incubation with analog or ethanol (0.1%). Duplicate assays were performed. The results were averaged and expressed as a percentage of the results obtained from untreated cells.
Assay of the Effects of Analogs on the Replication of Maloney Murine Leukemia Virus. The LZ1 titer assay was developed for rapid histochemical quantitation of infectious virus production. In brief, the LZ1 virus-producing cell line was derived by Sanes et al., EMBO J. 5, 3133-3142 (1986), from the .PSI.-2 cell line. .PSI.-2-cells are NIH 3T3 cells that contain a stably integrated packaging mutant (pMOV-.PSI.-) of MoMLV. This mutant has a deletion of 350 nucleotides between the 5' donor splice site for env and the initiator methionine codon for Pr65^gag [Mann et al., Cell 33, 153-159 (1983)]. The LZ1 cell line is a subclone of .PSI.-2 cells that were co-transfectd with pM-MuLV-SV-LacZ [Sanes et al., supra.]and pSVTK neoB and then selected for G418 (Geneticin®) antibiotic resistance and production of defective MoMLV containing the E. coli β-galactosidase gene [Sanes et al., supra.]. The recombinant virus produced by LZ1 cells is capable of primary infection of NIH 3T3 cells but is replication defective [Sanes et al., surpa.]. Infected NIH 3T3 containing the lac-Z gene can be identified by histochemical staining for β-galactosidase activity.
To assess the effects of analog treatment on MoMLV replication, 1 × 10^5 LZ1 producing cells were added to each well of a 24-well tissue culture plate in 1 mL of Dulbecco's Modified Eagle's medium (DME) containing calf serum (final concentration =10%), penicillin (100 IU/mL), streptomycin (100 μg/mL) with or without analog (10-100 μM). After 24 h, the media was removed and fresh serum-containing media ±analog was added. The next day (48 hours after plating), the virus containing supernatant was removed and passed through a 0.2 μm filter. Various size aliquots (25-100 μL of the 1 mL filtrate) were added to 1 × 10^4 NIH 3T3 cells contained in 1 mL of DME/10% calf serum/penicillin/streptomycin. These indicator cells had been plated 24 h earlier in 24 well tissue culture plates. Polybrene (Sigma) was added at the same time as the filtrate so that its final concentration was 10 μg/mL. […]

The next data set in a line: Hydrophobicity. To be noted: thioether moiety introduced into the fatty acid chain. Type of data set: physicochemical.
Data set [2] deals with myristoyl CoA: protein N-myristoyl transferase (NMT). Put plainly: Ability to act as substrate for NMT. Type of data set: biochemical. The source says:
Purification and use of this enzyme are described, for example, by Towler et al., Proc. Natl. Acad. Sci. USA 84, 2708-2712 (1987); J. Biol. Chem. 262, 1030-1036 (1987).

Another data set concerns AIDS virus (HIV). To be noted: cited from earlier work.
The test system of the next data set is virus. Put plainly: Antiviral effectiveness compared with C13-C14 analogs. The settings on record: C16 saturated fatty acid analog.
Data set [3] relates to HIV-1. Put plainly: Syncytia assay in HIV-1 infected H9 cells. Type of data set: cell-based, HIV-1 strain HXB2gptX (in human H9 cells). The settings on record: compared to infected, untreated H9 controls. As for the experimental part: as §1
Assay for HIV-1 Replication. The human T-lymphoid cell line, H9, was provided by R. D. Gallo (NIH) and maintained in RPMI-1640 medium supplemented with 10% fetal bovine serum, 100 IU/mL penicillin, 100 μg/mL streptomycin an 2 mM L-glutamine. […] The titer of the virus stock was determined by serial dilution using syncytia formation and reverse transcriptase activity (see below) as a measure of infectivity in H9 cells. […]
Syncytia Assay. The number of syncytia in each well was determined by microscopic examination on days 4-6 (infected, untreated control cultures), 8 and 10 (analog or decanoate treated cultures). The average number of multi-nucleated giant cells counted per 10 low-power fields (LPF =40 times magnification) was assigned to an arbitrary syncytia scale: 0=<1/LPF, 1+=1-4/LPF, 2+=5-7/LPF, 3+= 8-10/LPF, 4+=>10/LPF. By this criteria uninfected, control cells had zero synctia, and infected, untreated H9 cells were consistently scored as 4+.

For the compound `CCCCCCCCOCCCCC(=O)O` [6-oxamyristate, 5-(octyloxy)pentanoic acid], in the data set on HIV-1 [1], the “effect on reverse transcriptase activity” value is recorded as “No reduction in reverse transcriptase activity” and the activity at 100 µM worked out at 20%. The “relative efficacy on HIV-1 production” value in the data set on HIV-1 [1] (1-100 μM, H9 cells, ranking among the four analogs) is listed as “least effective”. In addition, in the data set on HIV-1 [1] (H9 cells), the “effect on HIV-1 production / replication” value is “no effect on HIV-1 replication”. In addition, in the data set on MoMLV (Murine leukemia virus, NIH3T3, 48 h, read-out: average reduction in virus titers (MoMLV)), the inhibition at 100 µM is greater than 60%. In the data set with MoMLV (Murine leukemia virus, NIH3T3, 48 h, read-out: reduction in MoMLV replication (virus titer)), the inhibition at 10 µM was found to be 40%. Moreover, the “effect on MoMLV replication” value with MoMLV (up to 100 μM, 2 day treatment of LZ1 cells) is “inhibits MoMLV replication in a concentration dependent fashion”.

Consider `CCCOCCCCCCCCCC(=O)O` [11oxamyristate, 10-(Propoxy)decanoic acid], for which the “effect on reverse transcriptase activity” value in the data set on HIV-1 [1] was “More pronounced effects”.

For the compound `CCSCCCCCCCCCCC(=O)O` [12thiamyristate, 11-(Ethylthio)undecanoic acid], in the data set with HIV-1 [1], the “effect on reverse transcriptase activity” value is listed as “More pronounced effects”. The hydrophobicity result in the data set “Hydrophobicity” is on record as “decreases its hydrophobicity”. Besides, the “ability to act as a substrate for NMT” value in data set [2] was “leaves intact its ability to act as a substrate”.

Regarding `Cc1cn([C@H]2C[C@H](N=[N+]=[N-])[C@@H](CO)O2)c(=O)[nH]c1=O` [AZT, 3'-azido-3'-deoxythymidine, reference compound], the inhibition at 5 µM in the data set on HIV-1 [1] (Human immunodeficiency virus 1, H9, read-out: inhibition of viral replication in the H9 acute assay) was greater than 90%. For the same compound, in the data set on AIDS virus (HIV), the “inhibition of replication of the virus in vitro” value is reported as “shown to inhibit replicaton of the virus in vitro”.

Turning to `CCCCOCCCCCCCCCCC(=O)O` [Compound I, 11-(1-butoxy)undecanoic acid], the “effectiveness versus analogs based on C13-C14 fatty acids” value in the data set on virus is “less effective than the analogs based on C13 -C14 fatty acids”.

In the case of `CCCCCCCCCC(=O)O` [decanoic acid, reference compound], the activity at 100 µM with HIV-1 [1] turned out to be 80%. Further, in the data set with HIV-1 [3], the “effect on number of syncytia” value was “no effect on the number of synctia”. Also, the “reduction of MoMLV titers compared to untreated controls” value in the data set with MoMLV (10-100 μM, 2 day treatment of LZ1 cells) is “no significant reductions”.
